Assay: molar heat capacity at constant pressure; xn = mol fraction of the nth substance listed
Settings: 101.3 kPa, Liquid, Small sample (50 mg) DSC

CCC(C)(C)O [2-methylbutan-2-ol] + CCCCCCC
Settings	molar heat capacity at constant pressure [J/K/mol]
300.15 K, x1 = 0.7015	252.48
300.15 K, x1 = 0.8023	251.41
300.15 K, x1 = 0.9139	250.21
300.15 K, x1 = 0.9609	249.66
301.14 K, x1 = 0.0061	225.7
301.14 K, x1 = 0.0494	236.34
301.14 K, x1 = 0.1	242.42
301.14 K, x1 = 0.1999	248.44
301.14 K, x1 = 0.2993	251.7
301.14 K, x1 = 0.4051	253.31
301.14 K, x1 = 0.4986	253.99
301.14 K, x1 = 0.5981	254.13
301.14 K, x1 = 0.7015	253.67
301.14 K, x1 = 0.8023	252.61
301.14 K, x1 = 0.9139	251.4
301.14 K, x1 = 0.9609	250.8
301.16 K, x1 = 0.0249	230.74
301.58 K, x1 = 0.1547	246.46
302.14 K, x1 = 0.0061	226.13
302.14 K, x1 = 0.0249	231.02
302.14 K, x1 = 0.0494	236.64
302.14 K, x1 = 0.1	243.03
302.14 K, x1 = 0.1547	246.89
302.14 K, x1 = 0.1999	249.24
302.14 K, x1 = 0.2993	252.65
302.14 K, x1 = 0.4051	254.36
302.14 K, x1 = 0.4986	255.15
302.14 K, x1 = 0.5981	255.29
302.14 K, x1 = 0.7015	254.9
302.14 K, x1 = 0.8023	253.83
302.14 K, x1 = 0.9139	252.62
302.14 K, x1 = 0.9609	251.98
303.15 K, x1 = 0.0061	226.42
303.15 K, x1 = 0.0249	231.23
303.15 K, x1 = 0.0494	236.93
303.15 K, x1 = 0.1	243.44
303.15 K, x1 = 0.1547	247.5
303.15 K, x1 = 0.1999	249.92
303.15 K, x1 = 0.2993	253.53
303.15 K, x1 = 0.4051	255.32
303.15 K, x1 = 0.4986	256.2
303.15 K, x1 = 0.5981	256.41
303.15 K, x1 = 0.7015	256.05
303.15 K, x1 = 0.8023	255
303.15 K, x1 = 0.9139	254.11
303.15 K, x1 = 0.9609	253.07
304.14 K, x1 = 0.0061	226.83
304.14 K, x1 = 0.0494	237.28
304.14 K, x1 = 0.1	243.93
304.14 K, x1 = 0.1547	248.12
304.14 K, x1 = 0.1999	250.66
304.14 K, x1 = 0.4986	257.22
304.14 K, x1 = 0.8023	256.13
304.14 K, x1 = 0.9139	254.91
304.14 K, x1 = 0.9609	254.18
304.16 K, x1 = 0.0249	231.5
304.16 K, x1 = 0.2993	254.39
304.16 K, x1 = 0.4051	256.27
304.16 K, x1 = 0.5981	257.54
304.16 K, x1 = 0.7015	257.2
305.14 K, x1 = 0.0061	227.18
305.14 K, x1 = 0.0249	231.73
305.14 K, x1 = 0.0494	237.51
305.14 K, x1 = 0.1	244.44
305.14 K, x1 = 0.1547	248.76
305.14 K, x1 = 0.1999	251.35
305.14 K, x1 = 0.2993	255.22
305.14 K, x1 = 0.4051	257.25
305.14 K, x1 = 0.4986	258.3
305.14 K, x1 = 0.5981	258.63
305.14 K, x1 = 0.7015	258.36
305.14 K, x1 = 0.8023	257.38
305.14 K, x1 = 0.9139	256.1
305.14 K, x1 = 0.9609	255.35
306.15 K, x1 = 0.0061	227.53
306.15 K, x1 = 0.0249	231.92
306.15 K, x1 = 0.0494	237.81
306.15 K, x1 = 0.1	244.85
306.15 K, x1 = 0.1547	249.34
306.15 K, x1 = 0.1999	252.03
306.15 K, x1 = 0.2993	256.04
306.15 K, x1 = 0.4051	258.23
306.15 K, x1 = 0.4986	259.33
306.15 K, x1 = 0.5981	259.69
306.15 K, x1 = 0.7015	259.47
306.15 K, x1 = 0.8023	258.63
306.15 K, x1 = 0.9139	257.22
306.15 K, x1 = 0.9609	256.43
307.14 K, x1 = 0.0061	227.97
307.16 K, x1 = 0.0249	232.13
307.16 K, x1 = 0.0494	238.05
307.16 K, x1 = 0.1	245.3
307.16 K, x1 = 0.1547	249.89
307.16 K, x1 = 0.1999	252.7
307.16 K, x1 = 0.2993	256.85
307.16 K, x1 = 0.4051	259.16
307.16 K, x1 = 0.4986	260.39
307.16 K, x1 = 0.5981	260.8
307.16 K, x1 = 0.7015	260.58
307.16 K, x1 = 0.8023	259.83
307.16 K, x1 = 0.9139	258.36
307.16 K, x1 = 0.9609	257.53
308.14 K, x1 = 0.0061	228.36
308.14 K, x1 = 0.0249	232.33
308.14 K, x1 = 0.0494	238.3
308.14 K, x1 = 0.1	245.7
308.14 K, x1 = 0.2993	257.61
308.14 K, x1 = 0.4051	260.05
308.14 K, x1 = 0.4986	261.33
308.14 K, x1 = 0.5981	261.79
308.14 K, x1 = 0.7015	261.67
308.14 K, x1 = 0.8023	260.9
308.14 K, x1 = 0.9139	259.4
308.14 K, x1 = 0.9609	258.61
308.16 K, x1 = 0.1547	250.43
308.16 K, x1 = 0.1999	253.31
309.15 K, x1 = 0.0061	228.7
309.15 K, x1 = 0.0249	232.53
309.15 K, x1 = 0.0494	238.53
309.15 K, x1 = 0.1	246.14
309.15 K, x1 = 0.1547	250.99
309.15 K, x1 = 0.1999	253.95
309.15 K, x1 = 0.2993	258.43
309.15 K, x1 = 0.4051	260.95
